Assay results as given in US20080089927A1, “Methods for Coacervation Induced Liposomal Encapsulation and Formulations Thereof” (priority 2006, published 2008).
Read-outs that look alike come from different tables or passages of the source.

Experiments:
[1] = Ternary phase diagram amikacin sulfate-water-ethanol; type: physicochemical; details: 3 parts amikacin sulfate 70 mg/mL in water mixed with 2 parts ethanol
From the text: FIG. 3 depicts a ternary phase diagram of amikacin sulfate—water—ethanol system.
FIG. 3 depicts a ternary phase diagram for an amikacin sulfate—water—ethanol system. The two-phase area under the binodial curve is a zone where the system separates into two phases, a coacervate phase and an equilibrium phase. The area above the binodial curve is a zone where single liquid phase system of amikacin sulfate dissolved in water-ethanol mixture exists. When 3 parts of amikacin sulfate solution in water at 70 mg/mL (point 1) is mixed with 2 parts of ethanol, the resulting mixture has composition (point 2), which spontaneously separates into two phases: coacervate phase rich in amikacin (point C) and equilibrium phase pour in amikacin (point E). Coacervate phase comprises only about 4.5% of total volume and originally forms as small droplets suspended in equilibrium phase. If lipids are present in surrounding solution when coacervates are just formed, they can spontaneously form bilayers around those droplets. During manufacturing it is often desired to limit exposure of the product to high ethanol concentration. For examples, another 3 parts of saline or buffer can be added consequently to the mixture, which shifts composition to the single-phase zone (point 3). […]

[2] = Miscibility of amikacin sulfate with ethanol/water; type: physicochemical; details: ethanol/water mixture, aqueous with cosolvent or surfactant or cyclodextrin
From the text: Right after the infusion step at flow rates 300/500, ethanol concentration in the mixture reaches 34%.
One possible solution to this problem is to add more water to the vessel with the lipid/amikacin mixture, thus reducing both ethanol and amikacin concentration.

Row | SMILES | coacervate phase, share of total volume [1] | solubility ([2]; 27% ethanol, depending on temperature, read-out: amikacin soluble concentration) [mg/mL] | solubility ([2]; 34% ethanol, read-out: solubility limit) [mg/mL]
1 | NCC[C@H](O)C(=O)N[C@@H]1C[C@H](N)[C@@H](O[C@H]2O[C@H](CN)[C@@H](O)[C@H](O)[C@H]2O)[C@H](O)[C@H]1O[C@H]1O[C@H](CO)[C@@H](O)[C@H](N)[C@H]1O.O=S(=O)(O)O.O=S(=O)(O)O [amikacin sulfate] | about 4.5% |  | 
2 | NCC[C@H](O)C(=O)N[C@@H]1C[C@H](N)[C@@H](O[C@H]2O[C@H](CN)[C@@H](O)[C@H](O)[C@H]2O)[C@H](O)[C@H]1O[C@H]1O[C@H](CO)[C@@H](O)[C@H](N)[C@H]1O [amikacin] |  | ≥ 15 | < 15
